Laboratory results from patent EP0433683A2, “Use of benzothiazepines as potentiators of anti-cancer drugs” (MARION MERRELL DOW INC., priority 1989, dated 1991).
Where a name gives a salt, the structure may show the parent alone.

Legend:
[1] = Anticonvulsant activity (AcA), method of Zobrist et al.; assay type: in vivo; set-up: key: 0 being no observed activity; 5 being the most active; settings: scale from 0 to 5
Procedure: Anticonvulsant activity (AcA) was determined generally by the method of Zobrist et al., European Patent Application EP.... (our ref.: A 634 EP) entitled, "BENZOTHZAZEPINE ANTI-SEIZURE METHOD," and filed on even date herewith; see also US-A-4,879,289.

[2] = Cardiovascular activity (CvA), isolated tissue; settings: scale from 0 to 5
Procedure: Cardovascular activity (CvA) was determined by the use of isolated tissue.

[3] = Anti-depressant activity (AdA), visual observation; assay type: in vivo; settings: scale from 0 to 5
Procedure: Anti-depressant activity (AdA) was determined by visual observation.

VCR-resistant cell line = settings: nontoxic concentration of diltiazem hydrochloride; cited from earlier work

SMILES	AcA [1]	CvA [2]	AdA [3]	increase in vincristine (VCR) cytotoxicity (VCR-resistant cell line) [fold]
COc1ccc([C@H]2Sc3ccccc3N(CCN(C)C)C(=O)[C@H]2OC(C)=O)cc1 [l-cis-DTZ]	3			
COc1ccc([C@@H]2Sc3ccccc3N(CCN(C)C)C(=O)[C@@H]2OC(=O)CC(C)C)cc1.O=C(O)/C=C/C(=O)O [d-cis-ML1014]	1	1		
CCCCC(=O)O[C@H]1C(=O)N(CCN(C)C)c2ccccc2S[C@H]1c1ccc(OC)cc1.O=C(O)/C=C/C(=O)O [d-cis-ML1013]	0	1		
COc1ccc([C@@H]2Sc3ccccc3N(CCN(C)C)C(=O)[C@@H]2OC(C)=O)cc1 [Diltiazem, d-cis-5-[2-(dimethylamino)ethyl]-2,3-dihydro-3-hydroxy-2-(4-methoxyphenyl)-1,5-benzothiazepin-4(5H)-one acetate (ester), reference compound]	5		2	
COc1ccc([C@@H]2Sc3ccccc3N(CCN(C)C)C(=O)[C@@H]2OC(C)=O)cc1 [diltiazem hydrochloride, Diltiazem hydrochloride]				54
COc1ccc([C@@H]2Sc3ccccc3N(CCN(C(C)C)C(C)C)C(=O)[C@@H]2OC(C)=O)cc1.Cl [d-cis-ML1016]	5	2	1	
